Reference: PMC2631660 (Bioorganic & medicinal chemistry, 2008)

Tests used:
hGSTA1-1 = target: T1, hGSTA1-1 (Homo sapiens, UniProt P08263); test: Specific activity / enzyme kinetics of GST towards compounds in presence of GSH; type: biochemical; details: compound 50 µM, 37 °C
T1 sequence (P08263 1-222): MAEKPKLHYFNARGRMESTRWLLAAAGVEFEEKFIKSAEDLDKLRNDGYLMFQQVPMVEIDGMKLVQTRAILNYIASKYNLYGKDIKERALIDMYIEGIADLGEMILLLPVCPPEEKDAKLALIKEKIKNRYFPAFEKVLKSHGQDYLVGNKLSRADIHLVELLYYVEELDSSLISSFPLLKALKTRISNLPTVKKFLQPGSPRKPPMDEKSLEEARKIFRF

hGSTM1-1 = target: T2, hGSTM1-1 (Homo sapiens, UniProt P09488); test: as above; type: biochemical; details: compound 50 µM, 37 °C
T2 sequence (P09488 2-218 limits assumed): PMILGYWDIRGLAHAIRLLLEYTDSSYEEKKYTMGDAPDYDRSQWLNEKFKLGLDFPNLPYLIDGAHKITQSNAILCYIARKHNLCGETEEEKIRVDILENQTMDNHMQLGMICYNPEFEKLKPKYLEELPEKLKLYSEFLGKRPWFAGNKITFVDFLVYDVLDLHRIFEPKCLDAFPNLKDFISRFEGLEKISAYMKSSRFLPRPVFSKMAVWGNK

hGSTP1-1 = hGSTP1-1 (Homo sapiens, UniProt P09211); test: as above; type: biochemical; details: compound 50 µM, 37 °C
Sequence of hGSTP1-1 (P09211 2-210 limits assumed): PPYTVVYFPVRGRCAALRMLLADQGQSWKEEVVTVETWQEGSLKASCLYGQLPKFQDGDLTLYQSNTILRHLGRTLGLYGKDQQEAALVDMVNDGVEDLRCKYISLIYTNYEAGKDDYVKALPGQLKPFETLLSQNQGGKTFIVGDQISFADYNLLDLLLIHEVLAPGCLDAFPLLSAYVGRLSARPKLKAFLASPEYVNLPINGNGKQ

HL-60 cells = test: MTT cell proliferation assay; type: cell-based; details: Homo sapiens, HL-60, 72 h, read-out: IC50 anti-proliferative activity

SMILES	GSTA1-1 specific activity (hGSTA1-1) [µmol/mg/min]	GSTM1-1 specific activity (hGSTM1-1) [µmol/mg/min]	GSTP1-1 specific activity (hGSTP1-1) [µmol/mg/min]	IC50 (HL-60 cells) [µM]
CCOC(=O)N1CCN(/[N+]([O-])=N/Oc2ccc([N+](=O)[O-])cc2[N+](=O)[O-])CC1 [JS-K, O^2-(2,4-dinitrophenyl) 1-[(4-ethoxycarbonyl)piperazin-1-yl]diazen-1-ium-1,2-diolate]	66.3	126	1.36	0.2 to 0.5
CCOC(=O)N1CCCN(/[N+]([O-])=N/Oc2ccc([N+](=O)[O-])cc2[N+](=O)[O-])CC1 [4a]	16.8	38	0.16	–
COC(=O)N1CCN(/[N+]([O-])=N/Oc2ccc([N+](=O)[O-])cc2[N+](=O)[O-])CC1 [4b]	45.1	102	0.98	–
CCOC(=O)N1CC(C)N(/[N+]([O-])=N/Oc2ccc([N+](=O)[O-])cc2[N+](=O)[O-])CC1C (stereo not shown) [3d, O^2-(2,4-Dinitrophenyl) 1-[(4-Ethoxycarbonyl)-2,5-dimethylpiperazin-1-yl]diazen-1-ium-1,2-diolate]	17.6	49	0.14	–
CCOC(=O)N1CCN(/[N+]([O-])=N/Oc2ccc([N+](=O)[O-])cc2[N+](=O)[O-])CC1C (stereo not shown) [3a, O^2-(2,4-Dinitrophenyl) 1-[(4-Ethoxycarbonyl)-3-methylpiperazin-1-yl]diazen-1-ium-1,2-diolate]	55.5	112	1.15	–
CCCOC(=O)N1CCN(/[N+]([O-])=N/Oc2ccc([N+](=O)[O-])cc2[N+](=O)[O-])CC1 [4c]	59.0	126.3	1.2	–
CCOC(=O)N1C(C)CN(/[N+]([O-])=N/Oc2ccc([N+](=O)[O-])cc2[N+](=O)[O-])CC1C (stereo not shown) [3c, O^2-(2,4-Dinitrophenyl) 1-[(4-Ethoxycarbonyl)-3,5-dimethylpiperazin-1-yl]diazen-1-ium-1,2-diolate]	70.3	172	1.17	–
CCOC(=O)N1CCN(/[N+]([O-])=N/Oc2ccc([N+](=O)[O-])cc2[N+](=O)[O-])C(C)C1 (stereo not shown) [3b, O^2-(2,4-Dinitrophenyl) 1-[(4-Ethoxycarbonyl)-2-methylpiperazin-1-yl]diazen-1-ium-1,2-diolate]	47.0	110	0.88	–
